Assay results from US9797002B2, “Methods and kits for genome-wide methylation of GpC sites and genome-wide determination of chromatin structure” (UNIVERSITY OF SOUTHERN CALIFORNIA, priority 2010, dated 2017).

Tested on: LD419
Assay: RT-PCR analysis of L1-MET reactivation after 5-Aza-CdR treatment
Type: cell-based, human
Conditions: LD419 fibroblast cell line, 1 or 3 μM 5-Aza-CdR for 24 hours (day 3 after treatment), β-actin control
Text: (A) The functional domains of MET include the signal peptide (SP), sema domain at the N-terminus, the PSI domain, IPT repeats, the transmembrane domain (TM), and the kinase domain at the C-terminus. The structure of truncated MET proteins 1 and 2 are shown, encoded by transcripts derived from placenta (GenBank accession no. BX334980) and a bladder carcinoma cell line (BF208095), respectively. (B) The two […] transcripts, truncated L1-MET-1 (T-MET-1) and truncated L1-MET-2 (T-MET-2), were cloned into a pMEV expression vector with 2 HA tags fused at the N-terminal. Hela cells were transfected with either the empty pMEV vector, pMEV T-MET-1, or pMEV T-MET-2 and protein was extracted after 48 hours. The expression of truncated MET-1 (90 kDa) and truncated MET-2 (60 kDa) was detected by western blot using an HA antibody. (C) Results of 5′RACE reveal the start site for L1-MET within the L1 element. The transcriptional start site of L1-MET was confirmed by 5′RACE in the T24 cell line which expressed L1-MET. The underlined sequence is located inside of the LINE-1. […] Found at: doi:10.1371/journal.pgen. 1000917.s002 (1.22 MB TIF)
The transcript from the L1-MET anti-sense promoter contains its own exons 1 and 2, referred to as L1-MET exon 1 and L1-MET exon 2 (FIG. 7A). […]
Quantitative RT-PCR. Expression was determined by quantitative RT-PCR as described previously.

SMILES: Nc1ncn([C@H]2C[C@H](O)[C@@H](CO)O2)c(=O)n1 [5-aza-deoxycytidine]
- expression (reactivation) of the L1-MET transcript: lead to expression of L1-MET
- expression (reactivation) of the L1-MET transcript (listed as 5-Aza-CdR): reactivation of L1-MET
